Test results: paper PMC5728534 (PLoS ONE, 2017)
Substitutions are numbered along the chain they refer to. Entries after “also recorded” stand apart in the source; their conditions may differ.

Experiments:
[1] = target: T1, OCT1*5 (Gly465Arg/Met420del) (Homo sapiens, UniProt O15245, DEL420-420/G465R/L160F); experiment: Ranitidine uptake in HEK293 cells overexpressing OCT1*5; assay type: in vitro ADME; conditions: 1 μM and 10 μM ranitidine, 2 min
T1 construct: expressed in transfected cells; host or cells: HEK293 T-REx (Flp-In)
T1 sequence (O15245 with tags, fused parts or gaps L160F/DEL420-420/G465R): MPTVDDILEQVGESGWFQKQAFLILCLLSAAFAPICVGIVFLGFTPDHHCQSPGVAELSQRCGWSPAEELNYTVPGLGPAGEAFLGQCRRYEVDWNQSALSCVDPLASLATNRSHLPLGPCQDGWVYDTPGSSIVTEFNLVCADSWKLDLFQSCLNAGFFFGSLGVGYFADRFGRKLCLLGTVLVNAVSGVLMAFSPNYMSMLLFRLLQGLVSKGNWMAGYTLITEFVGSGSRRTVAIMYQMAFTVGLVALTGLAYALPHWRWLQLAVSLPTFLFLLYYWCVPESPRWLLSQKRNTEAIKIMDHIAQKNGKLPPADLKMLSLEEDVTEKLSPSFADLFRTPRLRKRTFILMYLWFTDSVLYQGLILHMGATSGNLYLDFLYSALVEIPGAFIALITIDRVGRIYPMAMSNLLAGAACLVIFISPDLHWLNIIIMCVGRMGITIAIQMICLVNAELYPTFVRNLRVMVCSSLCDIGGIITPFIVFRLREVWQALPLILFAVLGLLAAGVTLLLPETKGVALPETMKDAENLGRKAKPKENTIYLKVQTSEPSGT
Source text: (§1) HEK293 or CHO cells overexpressing the human OCT1 alleles *1A (characterized by the amino acid substitution Met408Val), *1B, *1C (Phe160Leu), *1D (Pro341Leu/Met408Val), *2 (Met420del), *3 (Arg61Cys), *4 (Gly401Ser), *5 (Gly465Arg/Met420del), *6 (Cys88Arg/Met420del), *7 (Ser14Phe), *8A (Arg488Met), *8B (Arg488Met/Met408Val), *9 (Pro117Leu), *10 (Ser189Leu), *11 (Ile449Thr), *12 (Ser29Leu), or *13 (Thr245Met), the human OCT2 reference and variant alleles (Ala270Ser), human OCT3, and the control cells (transfected with the empty pcDNA5 vector) were generated by targeted chromosomal integration using the Flp-In™ System (Life Technologies, Darmstadt, Germany).
(§2) Six hundred thousand HEK293 or CHO cells were plated per well in 12-well plates (pre-coated with poly-D-lysine) and were grown for 48 hours to reach confluence. Cells were kept at 37°C and 5% CO2 in DMEM (HEK293) or RPMI (CHO), supplemented with 10% FCS, 100 U/ml penicillin, and 100 μg/ml streptomycin. Uptake experiments were performed at pH 7.4 using HBSS supplemented with 10 mM HEPES buffer (herein referred to as HBSS+). […]
(§3) For all transport measurements, the intracellular amount of substrate was normalized to the total amount of protein of the sample as measured using the bicinchoninic acid assay [49].
(§4) For quantification of intracellular substrates, the cell debris were removed by centrifugation at 17,000 x g for 10 min. […]

OCT1*13 (Thr245Met) = target: T2, OCT1*13 (Thr245Met) (Homo sapiens, UniProt O15245, L160F/T245M); experiment: Ranitidine uptake in HEK293 cells overexpressing OCT1*13; assay type: in vitro ADME; conditions: 1 μM and 10 μM ranitidine, 2 min
T2 construct: expressed in transfected cells; host or cells: HEK293 T-REx (Flp-In)
T2 sequence (O15245 1-554 L160F/T245M): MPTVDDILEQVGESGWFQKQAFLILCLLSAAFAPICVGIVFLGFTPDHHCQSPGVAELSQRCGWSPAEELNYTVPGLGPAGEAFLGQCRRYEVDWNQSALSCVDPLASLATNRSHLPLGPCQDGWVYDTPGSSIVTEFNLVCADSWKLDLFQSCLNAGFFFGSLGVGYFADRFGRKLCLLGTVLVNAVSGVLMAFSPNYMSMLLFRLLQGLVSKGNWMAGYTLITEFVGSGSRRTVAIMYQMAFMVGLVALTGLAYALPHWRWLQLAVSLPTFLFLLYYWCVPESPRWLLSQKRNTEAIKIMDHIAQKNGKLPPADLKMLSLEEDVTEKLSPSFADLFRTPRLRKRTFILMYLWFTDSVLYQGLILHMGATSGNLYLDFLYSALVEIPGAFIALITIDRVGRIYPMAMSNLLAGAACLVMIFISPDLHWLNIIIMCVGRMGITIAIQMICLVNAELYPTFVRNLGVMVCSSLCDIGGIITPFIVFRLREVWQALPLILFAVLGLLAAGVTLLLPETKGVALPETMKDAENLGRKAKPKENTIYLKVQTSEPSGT
Source text: as §1, §2, §3, §4

[2] = target: T3, OCT1*1D (Pro341Leu/Met408Val) (Homo sapiens, UniProt O15245, L160F/M408V/P341L); conditions: 1 and 10 μM ranitidine, 2 min
T3 sequence (O15245 1-554 L160F/P341L/M408V): T2 sequence (O15245 1-554 L160F/T245M) with M245T, P341L, M408V
Source text: as §1, §2, §3, §4

OCT1*3 (Arg61Cys) = target: T4, OCT1*3 (Arg61Cys) (Homo sapiens, UniProt O15245, L160F/R61C)
T4 sequence (O15245 1-554 R61C/L160F): T2 sequence (O15245 1-554 L160F/T245M) with R61C, M245T
Source text: as §1, §2, §3, §4

[3] = physiological pH of 7.4; no reference given; cited from earlier work
[4] = design: method as in ref 56 = [56]; 56 Pharma ® A. Fachinformation Ranitidin 150–1 A Pharma ® , Ranitidin 300–1 A Pharma ® : Rote Liste ®; 2013 [updated June 2013; cited 2016 21.10.2016].; conditions: cited from earlier work
[5] = design: method as in ref 5 = [5]; 5 Inc. G. PrZANTAC ® [product monograph]. Canada: GlaxoSmithKline Inc.; 2015 [updated 15.01.2015; cited 2016 21.10.2016].; conditions: long-term toxicity tests in animals; cited from earlier work

CNC(=C[N+](=O)[O-])NCCSCc1ccc(CN(C)C)o1 [ranitidine, Ranitidine]
ranitidine transport activity [1]: completely lacked ranitidine uptake; also recorded: complete lack of ranitidine transport activity
ranitidine transport activity (OCT1*13 (Thr245Met)): completely lacked ranitidine uptake; also recorded: complete lack of ranitidine transport activity
uptake of ranitidine compared to the reference allele [2]: no significant difference
decrease of vmax compared to the reference allele (OCT1*3 (Arg61Cys)): more than 50%
ranitidine molecules that are positively charged organic cations [3]: 86%
dosages exceeding the single dose not associated with a higher prevalence of adverse reactions [4]: more than 20 fold
plasma concentrations exceeding the human maximal plasma concentration without significant adverse reactions [5]: 50 fold
